Results on 16 compounds are retold here after ChEMBL document CHEMBL1140322, “New pyrrolo[2,1-f]purine-2,4-dione and imidazo[2,1-f]purine-2,4-dione derivatives as potent and selective human A3 adenosine receptor antagonists” (J Med Chem, 2005).

Assay [1] deals with Adenosine receptors; A2b & A3 (Homo sapiens) (UniProt P29275+P0DMS8). The experiment in a line: Relative binding affinity for human adenosine A2b and A3 receptors. In kind it is protein assay.
Assay [2] has as its target Adenosine receptors; A1 & A3 (Homo sapiens) (UniProt P30542+P0DMS8). The assay can be described thus: Relative binding affinity for human adenosine A1 and A3 receptors. In kind it is protein assay.
Assay [3] has as its target Adenosine receptors; A2a & A3 (Homo sapiens) (UniProt P0DMS8+P29274). The assay can be described thus: Relative binding affinity for human adenosine A2a and A3 receptors. In kind it is protein assay.
Another assay deals with Adenosine receptor A2a (Homo sapiens, UniProt P29274). The experiment in a line: Inhibition of [3H]-ZM 241385 binding to human adenosine A2a receptor expressed in CHO cells. It counts as cell-based.
Another assay addresses T1, Adenosine receptor A2b (Homo sapiens, UniProt P29275).
T1 sequence (P29275 whole entry): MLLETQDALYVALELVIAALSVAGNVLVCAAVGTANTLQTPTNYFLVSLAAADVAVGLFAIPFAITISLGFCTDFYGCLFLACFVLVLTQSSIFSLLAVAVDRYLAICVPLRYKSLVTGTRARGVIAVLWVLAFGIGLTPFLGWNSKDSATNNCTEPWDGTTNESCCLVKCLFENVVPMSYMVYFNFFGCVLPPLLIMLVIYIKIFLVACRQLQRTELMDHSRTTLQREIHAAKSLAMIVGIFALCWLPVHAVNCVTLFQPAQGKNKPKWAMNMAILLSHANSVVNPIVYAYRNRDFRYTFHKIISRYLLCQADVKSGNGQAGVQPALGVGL
The experiment in a line: Inhibition of 100 nM NECA-stimulated cAMP production in CHO cells expressing human adenosine A2B receptor. In kind it is functional, cell-based. For orientation: cAMP levels reflect the balance of adenylyl cyclase and phosphodiesterase activity.

Another assay has as its target T2, Adenosine receptor A1 (Homo sapiens, UniProt P30542).
T2 sequence (P30542 whole entry): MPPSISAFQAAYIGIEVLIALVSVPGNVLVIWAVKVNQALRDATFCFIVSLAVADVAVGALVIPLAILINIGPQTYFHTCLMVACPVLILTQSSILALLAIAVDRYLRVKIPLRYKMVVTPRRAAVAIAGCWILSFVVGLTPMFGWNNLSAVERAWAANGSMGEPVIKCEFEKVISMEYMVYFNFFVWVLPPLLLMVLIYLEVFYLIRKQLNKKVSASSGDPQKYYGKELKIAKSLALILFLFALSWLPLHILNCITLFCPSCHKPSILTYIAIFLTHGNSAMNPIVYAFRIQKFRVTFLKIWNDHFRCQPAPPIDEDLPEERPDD
The assay can be described thus: Inhibition of [3H]DPCPX binding to human adenosine A1 receptor expressed in CHO cells. In kind it is cell-based.

The structures appear in SMILES notation. Bounds are passed on as bounds.

The term Ki denotes a dissociation constant, usually derived from enzyme kinetics or from competition with a known ligand. Low readings indicate tighter binding, high ones weaker binding. A word on the IC50: it is the midpoint of a concentration-inhibition curve. Read a high IC50 as weaker potency in that assay.

Sequence of Adenosine receptors; A1 & A3 (Homo sapiens) (P0DMS8 whole entry, looked up, one chain of several): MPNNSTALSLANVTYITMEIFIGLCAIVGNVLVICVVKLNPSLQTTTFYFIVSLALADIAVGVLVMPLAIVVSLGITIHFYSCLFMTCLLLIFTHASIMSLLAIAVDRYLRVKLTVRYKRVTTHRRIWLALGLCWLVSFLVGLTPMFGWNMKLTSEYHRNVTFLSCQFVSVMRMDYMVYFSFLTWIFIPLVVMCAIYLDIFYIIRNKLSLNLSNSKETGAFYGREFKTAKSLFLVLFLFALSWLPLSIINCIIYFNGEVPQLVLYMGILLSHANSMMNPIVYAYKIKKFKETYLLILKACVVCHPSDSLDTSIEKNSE
Sequence of Adenosine receptor A2a (P29274 whole entry): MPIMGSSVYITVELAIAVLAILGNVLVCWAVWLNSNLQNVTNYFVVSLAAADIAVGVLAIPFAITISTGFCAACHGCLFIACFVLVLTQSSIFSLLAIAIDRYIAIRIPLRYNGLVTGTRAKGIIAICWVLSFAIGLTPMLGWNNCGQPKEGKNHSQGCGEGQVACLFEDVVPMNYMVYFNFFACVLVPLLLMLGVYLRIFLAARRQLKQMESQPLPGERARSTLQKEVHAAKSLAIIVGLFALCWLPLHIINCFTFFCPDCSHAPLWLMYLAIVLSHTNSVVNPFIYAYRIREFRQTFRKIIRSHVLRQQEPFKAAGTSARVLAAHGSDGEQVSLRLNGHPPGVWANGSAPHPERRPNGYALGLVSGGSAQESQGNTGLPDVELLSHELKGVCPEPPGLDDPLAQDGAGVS

For `CCCn1c(=O)c2c(nc3[nH]c(C(C)C)cn32)n(Cc2ccccc2)c1=O`, the Selectivity in assay [1] was > 32; in assay [2], > 15; in assay [3] it was > 32. Besides, the inhibition constant Ki at Adenosine receptor A2a is > 1000 nM. Further, on Adenosine receptor A2b, the IC50 was > 1000 nM.
For the compound `CCCn1c(=O)c2c(nc3[nH]c(CC)cn32)n(Cc2ccccc2)c1=O`, the Selectivity in assay [1], in assay [2] and in assay [3] was > 67 throughout. Further, the Ki at Adenosine receptor A1 and on Adenosine receptor A2a was > 1000 nM each time. In addition, the IC50 against Adenosine receptor A2b was > 1000 nM.
Take `CCCn1c(=O)c2c(nc3[nH]c(-c4ccccc4)cn32)n(Cc2ccccc2)c1=O`: the Ki on Adenosine receptor A1 and at Adenosine receptor A2a was > 1000 nM in each case. For the same compound, the Selectivity in assay [2] and in assay [3] was > 9 throughout.
Consider `CCCn1c(=O)c2c(nc3[nH]c(-c4ccc(OC)cc4)cn32)n(Cc2ccccc2)c1=O`, for which the Ki on Adenosine receptor A1 and at Adenosine receptor A2a was > 1000 nM each time. The Selectivity in assay [2] and in assay [3] was > 18 in each case.
On to `CCCn1c(=O)c2c(nc3[nH]c(C)cn32)n(Cc2ccccc2)c1=O`, for which the IC50 against Adenosine receptor A2b was > 1000 nM.
Same read-out and setting: the same measure for `CCCn1c(=O)c2c(nc3n2CC(CC)=C3)n(Cc2ccccc2)c1=O`: > 1000 nM.
`CCCn1c(=O)c2c(nc3[nH]c(C4CCCCC4)cn32)n(Cc2ccccc2)c1=O`: the Ki at Adenosine receptor A1 and on Adenosine receptor A2a was > 1000 nM in each case. Also, the Selectivity in assay [2] and in assay [3] was > 2 in each case. Besides, the IC50 against Adenosine receptor A2b is > 1000 nM.
Take `CCCn1c(=O)c2c(nc3[nH]c(CC)c(C)n32)n(Cc2ccccc2)c1=O`: the Selectivity in assay [1], in assay [2] and in assay [3] was > 17 in each case. Further, the Ki on Adenosine receptor A1 and at Adenosine receptor A2a was > 1000 nM throughout. The IC50 against Adenosine receptor A2b is > 1000 nM.
For the compound `CCCn1c(=O)c2c(nc3[nH]c(-c4ccc(F)cc4)cn32)n(Cc2ccccc2)c1=O`, the Ki at Adenosine receptor A1 and on Adenosine receptor A2a was > 1000 nM throughout. Further, the Selectivity in assay [2] and in assay [3] was > 45 throughout.
As for `CCCn1c(=O)c2c(nc3n2CC(C)=C3)n(Cc2ccccc2)c1=O`, the Selectivity in assay [1] is 50; in assay [2], > 125; in assay [3] it was > 125. Further, the Ki at Adenosine receptor A1 and on Adenosine receptor A2a was > 1000 nM in each case.
Consider `CCCn1c(=O)c2c(nc3[nH]c(-c4ccc(-c5ccccc5)cc4)cn32)n(Cc2ccccc2)c1=O`, for which the Ki at Adenosine receptor A1 and on Adenosine receptor A2a was > 1000 nM in each case.
In the case of `CCCn1c(=O)c2c(nc3[nH]c(C(C)(C)C)cn32)n(Cc2ccccc2)c1=O`, the Selectivity in assay [1], in assay [2] and in assay [3] was > 10 throughout. Moreover, the Ki on Adenosine receptor A1 and on Adenosine receptor A2a was > 1000 nM in each case. Also, the IC50 on Adenosine receptor A2b is > 1000 nM.
Consider `CCCn1c(=O)c2c(nc3[nH]c(C4CC4)cn32)n(Cc2ccccc2)c1=O`, for which the values for the Selectivity in assay [1], in assay [2] and in assay [3] were > 44, 15 and > 44, respectively. Also, the Ki at Adenosine receptor A2a was > 1000 nM. At Adenosine receptor A2b, the IC50 is > 1000 nM.
As to `CCCn1c(=O)c2c(nc3[nH]c(C)c(C)n32)n(Cc2ccccc2)c1=O`, the Selectivity in assay [1], in assay [2] and in assay [3] was > 28 in each case. Further, the Ki on Adenosine receptor A1 and at Adenosine receptor A2a was > 1000 nM in each case. Moreover, the IC50 against Adenosine receptor A2b was > 1000 nM.
Regarding `CCCn1c(=O)c2c(nc3n2C(C)C(C)=C3)n(Cc2ccccc2)c1=O` (stereo not given), the Selectivity in assay [1], in assay [2] and in assay [3] was > 13 in each case. Further, the Ki at Adenosine receptor A1 and on Adenosine receptor A2a was > 1000 nM throughout. At Adenosine receptor A2b, the IC50 is > 1000 nM.
As to `CCCn1c(=O)c2c(nc3n2CC(c2ccccc2)=C3)n(Cc2ccccc2)c1=O`, the Ki at Adenosine receptor A1 and on Adenosine receptor A2a was > 1000 nM in each case. Moreover, the Selectivity in assay [2] and in assay [3] was > 5 throughout.
